Active and inactive are the calls of the source. How the calls were made is not given here.

34 molecules from PubChem BioAssay AID602129 (The Scripps Research Institute Molecular Screening Center, 2011) can be followed below.

The target in the experiment is Mucolipin-3 (Homo sapiens) (UniProt Q8TDD5). Put plainly: TRPML3 channel agonist potency, late-stage follow-up, cell-based, fluorescence, dose response, round 3 (AID 602129). Conditions: HEK293 TRPML3 cells, calcium fluorescence.
Chain of Mucolipin-3 (Homo sapiens) (Q8TDD5 whole entry, looked up): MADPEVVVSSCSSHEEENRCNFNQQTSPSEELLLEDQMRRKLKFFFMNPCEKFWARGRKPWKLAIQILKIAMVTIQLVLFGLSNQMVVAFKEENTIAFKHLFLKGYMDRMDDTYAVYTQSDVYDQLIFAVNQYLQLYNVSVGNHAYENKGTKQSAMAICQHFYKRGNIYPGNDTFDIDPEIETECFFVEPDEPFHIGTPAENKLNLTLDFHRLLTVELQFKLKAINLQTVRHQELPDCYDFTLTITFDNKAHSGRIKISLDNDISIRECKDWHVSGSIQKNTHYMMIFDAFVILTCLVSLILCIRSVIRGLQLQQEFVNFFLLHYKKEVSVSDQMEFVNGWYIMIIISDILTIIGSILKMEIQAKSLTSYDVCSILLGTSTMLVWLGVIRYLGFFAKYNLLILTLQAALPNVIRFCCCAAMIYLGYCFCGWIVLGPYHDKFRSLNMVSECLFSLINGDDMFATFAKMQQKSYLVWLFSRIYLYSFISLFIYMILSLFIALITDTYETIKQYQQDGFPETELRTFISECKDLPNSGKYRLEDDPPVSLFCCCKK
Consider `CCOc1ccc(S(=O)(=O)N2CCOCC2)c2ccccc12`, for which the EC50 is > 29.9 µM (inactive).

For the molecule `Cc1ccc(S(=O)(=O)n2nccc2-c2c(-c3ccccc3)noc2C)cc1`, the EC50 was > 29.9 µM (inactive).

On to `CCOc1ccc(S(=O)(=O)N2CCSCC2)c2ccccc12`, for which the EC50 was > 29.9 µM (inactive).

For the molecule `CCOc1ccc(S(=O)(=O)NCc2ccncc2)c2ccccc12`, the EC50 was > 29.9 µM (inactive).

As to `CCOc1ccc(S(=O)(=O)NCc2ccc(OC)cc2)c2ccccc12`, the EC50 was > 29.9 µM (inactive).

In the case of `Cc1onc(-c2ccc(Cl)cc2)c1-c1ccn(S(=O)(=O)c2cccs2)n1`, the EC50 was > 29.9 µM (inactive).

As for `Cc1onc(-c2ccccc2)c1-c1ccn(S(=O)(=O)c2ccc(Cl)cc2)n1`, the EC50 was > 29.9 µM (inactive).

Regarding `CCOc1ccc(S(=O)(=O)N(CC)CC)c2ccccc12`, the EC50 is > 29.9 µM (inactive).

For the molecule `CCCCNS(=O)(=O)c1ccc(OCC)c2ccccc12`, the EC50 is > 29.9 µM (inactive).

As for `CCOc1ccc(S(=O)(=O)N2CCCCC2)c2ccccc12`, the EC50 was 3.46 µM.

Regarding `Cc1onc(-c2ccc(Cl)cc2)c1-c1ccn(S(=O)(=O)c2ccccc2C(F)(F)F)n1`, the EC50 is 3.58 µM.

Take `Cc1onc(-c2ccc(Cl)cc2)c1-c1ccn(S(=O)(=O)c2ccc(Cl)cc2)n1`: the EC50 entry is “inactive”.

With `CCOc1ccc(S(=O)(=O)N2CCCC2)c2ccccc12`, the EC50 was > 29.9 µM (inactive).

In the case of `Cc1onc(-c2ccc(Cl)cc2)c1-c1ccn(S(=O)(=O)C(F)(F)F)n1`, the EC50 was > 29.9 µM (inactive).

Turning to `Cc1onc(-c2ccccc2)c1-c1ccnn1S(=O)(=O)c1ccc(Cl)cc1`, the EC50 is > 29.9 µM (inactive).

As for `Cc1onc(-c2ccc(Cl)cc2)c1-c1ccn(S(C)(=O)=O)n1`, the EC50 was > 29.9 µM (inactive).

Regarding `Cc1onc(-c2ccc(Cl)cc2)c1-c1ccn(S(=O)(=O)c2ccccc2Cl)n1`, the EC50 is 1.53 µM.

In the case of `Cc1onc(-c2ccc(Cl)cc2)c1-c1ccn(S(=O)(=O)c2cccc(C(F)(F)F)c2)n1`, the EC50 is 3.34 µM.

In the case of `COc1ccc(S(=O)(=O)n2ccc(-c3c(-c4ccc(Cl)cc4)noc3C)n2)cc1`, the EC50 was 3.78 µM.

As for `Cc1onc(-c2ccc(Cl)cc2)c1-c1ccnn1S(=O)(=O)c1ccc(Cl)cc1`, the EC50 was > 29.9 µM (inactive).

As to `Cc1onc(-c2ccc(Cl)cc2)c1-c1ccn(S(=O)(=O)c2cccc3cccnc23)n1`, the EC50 is > 29.9 µM (inactive).

`Cc1ccc(S(=O)(=O)n2ccc(-c3c(-c4ccccc4)noc3C)n2)cc1`: the EC50 is 1.46 µM.

As to `CCOc1ccc(S(=O)(=O)N2CCN(c3ccccc3Cl)CC2)c2ccccc12`, the EC50 is > 29.9 µM (inactive).

Turning to `Cc1ccc(S(=O)(=O)n2ccc(-c3c(-c4ccc(F)cc4)noc3C)n2)cc1`, the EC50 was 0.68 µM.

With `Cc1onc(-c2ccc(Cl)cc2)c1-c1ccn(S(=O)(=O)c2ccccc2)n1`, the EC50 was 2.39 µM.

Consider `Cc1onc(-c2ccc(Cl)cc2)c1-c1ccnn1S(=O)(=O)c1cccc(C(F)(F)F)c1`, for which the EC50 was > 29.9 µM (inactive).

`CC(C)Oc1ccc(S(=O)(=O)N2CCCCCC2)c2ccccc12`: the EC50 result was “inactive”.

Turning to `COc1ccc(S(=O)(=O)N2CCCCCC2)c2ccccc12`, the EC50 is 0.476 µM.

For `COc1ccc(-c2noc(C)c2-c2ccn(S(=O)(=O)c3ccc(C)cc3)n2)cc1`, the EC50 is 2.99 µM.

For `Cc1onc(-c2ccc(Cl)cc2)c1-c1ccn(S(=O)(=O)c2ccc(C(F)(F)F)cc2)n1`, the EC50 was > 29.9 µM (inactive).

Turning to `CCOc1ccc(S(=O)(=O)n2ccc(-c3c(-c4ccc(Cl)cc4)noc3C)n2)c2ccccc12`, the EC50 was > 29.9 µM (inactive).

In the case of `Cc1onc(-c2ccc(Cl)cc2)c1-c1ccn(S(=O)(=O)c2cccc(Cl)c2)n1`, the EC50 was 1.95 µM.

Consider `CCOc1ccc(S(=O)(=O)N2CCN(C(=O)OC(C)(C)C)CC2)c2ccccc12`, for which the EC50 is > 29.9 µM (inactive).

Regarding `Cc1ccccc1S(=O)(=O)n1ccc(-c2c(-c3ccc(Cl)cc3)noc2C)n1`, the EC50 was 4.86 µM.
